In US12528786B2, “Plasma kallikrein inhibitors” (Merck Sharp & Dohme LLC, priority 2020, dated 2026):
pIC50: −log10 of the molar value.

Molecular target: T1, Human plasma kallikrein (Homo sapiens, UniProt P03952)
T1 construct: yields a heavy chain (371 amino acids) and a light chain (248 amino acids); purchased Enzyme Research Laboratories
Test: Kallikrein Assay (fluorogenic substrate hydrolysis, AFC release)
Format: biochemical
Details: purified Human plasma kallikrein 0.5 nM; substrate Acetyl-K—P—R-AFC 100 mM; 50 mM HEPES pH 7.4
How it was run: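 Purified human plasma kallikrein (0.5 nM final) with Acetyl-K-P-R-AFC substrate (final ≤0.2 Km) in 50 mM HEPES pH 7.4, 150 mM NaCl, 5 mM CaCl2, 0.1% PEG 8000, after enzyme–inhibitor equilibration; room temperature or 37° C. AFC fluorescence (405 Ex/510 Em nm) under linear conditions; IC50 by four-parameter fit, Ki via Cheng-Prusoff.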

T1 sequence (P03952 391-638 limits assumed): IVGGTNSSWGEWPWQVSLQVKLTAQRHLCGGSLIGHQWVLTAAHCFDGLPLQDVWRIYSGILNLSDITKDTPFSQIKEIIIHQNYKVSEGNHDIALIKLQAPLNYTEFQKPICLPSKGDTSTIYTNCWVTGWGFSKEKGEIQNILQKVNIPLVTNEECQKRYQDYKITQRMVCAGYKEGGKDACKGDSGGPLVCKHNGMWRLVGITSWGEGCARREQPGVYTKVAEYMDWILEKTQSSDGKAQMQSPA
T1 sequence (P03952 20-390 partner limits assumed): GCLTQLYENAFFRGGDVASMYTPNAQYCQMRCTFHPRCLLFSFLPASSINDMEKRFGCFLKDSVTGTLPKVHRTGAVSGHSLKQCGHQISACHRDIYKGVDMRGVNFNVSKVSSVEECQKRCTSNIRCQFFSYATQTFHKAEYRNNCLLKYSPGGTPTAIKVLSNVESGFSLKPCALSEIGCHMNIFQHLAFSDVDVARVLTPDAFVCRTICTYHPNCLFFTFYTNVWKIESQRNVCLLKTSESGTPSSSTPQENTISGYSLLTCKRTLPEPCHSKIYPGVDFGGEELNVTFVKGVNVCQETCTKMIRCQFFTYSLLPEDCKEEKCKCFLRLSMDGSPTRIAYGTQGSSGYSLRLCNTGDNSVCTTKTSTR

Row | SMILES | pIC50
1 | Cc1c(C(C)n2cc(C(=O)N[C@H]3C[C@@H](c4cc(Cl)ccc4C#N)C3)cn2)cnc(N2C[C@H]3C[C@H]3C2=O)c1C (single isomer, unassigned) [Example 40, N-((cis)-3-(5-chloro-2-cyanophenyl)cyclobutyl)-1-((S or R)-1-(4,5-dimethyl-6-((1R,5S)-2-oxo-3-azabicyclo[3.1.0]hexan-3-yl)pyridin-3-yl)ethyl)-1H-pyrazole-4-carboxamide] | 9.15
2 | Cc1cc(N2C[C@H]3C[C@H]3C2=O)ncc1[C@H](C)c1cc(C(=O)N[C@H]2C[C@@H](c3cc(Cl)ccc3C#N)C2)n(C)n1 [Example 173, N-((cis)-3-(5-chloro-2-cyanophenyl)cyclobutyl)-1-methyl-3-((S)-1-(4-methyl-6-((1R,5S)-2-oxo-3-azabicyclo[3.1.0]hexan-3-yl)pyridin-3-yl)ethyl)-1H-pyrazole-5-carboxamide] | 8.49
3 | Cc1ccnc([C@H]2C[C@@H](NC(=O)c3cnn(C(C)c4cnc(N5C[C@H]6C[C@H]6C5=O)cc4C)c3)C2)c1 (single isomer, unassigned) [Example 32, 1-((R or S)-1-(4-methyl-6-((1R,5S)-2-oxo-3-azabicyclo[3.1.0]hexan-3-yl)pyridin-3-yl)ethyl)-N-((cis)-3-(4-methylpyridin-2-yl)cyclobutyl)-1H-pyrazole-4-carboxamide] | 7.95
4 | CC(c1cnc(N2C[C@H]3C[C@H]3C2=O)nc1)n1cc(C(=O)N[C@H]2C[C@@H](c3cc(Cl)ccc3C#N)C2)c(C#N)n1 (single isomer, unassigned) [Example 18, N-((cis)-3-(5-chloro-2-cyanophenyl)cyclobutyl)-3-cyano-1-((S or R)-1-(2-((1R,5S)-2-oxo-3-azabicyclo[3.1.0]hexan-3-yl)pyrimidin-5-yl)ethyl)-1H-pyrazole-4-carboxamide] | 7.99
5 | Cc1nc(C(C)n2cc(C(=O)N[C@H]3C[C@@](C)(c4cc(Cl)ccc4C#N)C3)nn2)cnc1N1C[C@H]2C[C@H]2C1=O (single isomer, unassigned) [Example 110, N-((cis)-3-(5-chloro-2-cyanophenyl)-3-methylcyclobutyl)-1-((S or R)-1-(6-methyl-5-((1R,5S)-2-oxo-3-azabicyclo[3.1.0]hexan-3-yl)pyrazin-2-yl)ethyl)-1H-1,2,3-triazole-4-carboxamide] | 8.96
6 | Cc1c(C(C)n2cc(C(=O)NC3CC(c4cccc(Cl)c4)C3O)nn2)cnc(N2C[C@H]3C[C@H]3C2=O)c1F (single isomer, unassigned) [Example 124, N-((1S,2S,3S or 1R,2R,3R)-3-(3-chlorophenyl)-2-hydroxycyclobutyl)-1-((R or S)-1-(5-fluoro-4-methyl-6-((1R,5S)-2-oxo-3-azabicyclo[3.1.0]hexan-3-yl)pyridin-3-yl)ethyl)-1H-1,2,3-triazole-4-carboxamide] | 8.35
7 | Cc1c(C(C)n2cc(C(=O)NC3CC(c4cccc(Cl)c4)C3O)nn2)cnc(N2C[C@H]3C[C@H]3C2=O)c1F (single isomer, unassigned) [Example 126, N-((1S,2S,3S or 1R,2R,3R)-3-(3-chlorophenyl)-2-hydroxycyclobutyl)-1-((S or R)-1-(5-fluoro-4-methyl-6-((1R,5S)-2-oxo-3-azabicyclo[3.1.0]hexan-3-yl)pyridin-3-yl)ethyl)-1H-1,2,3-triazole-4-carboxamide] | 6.38
8 | Cc1ccnc([C@H]2C[C@@H](NC(=O)c3cnn(C(C)c4cnc(N5C[C@H]6C[C@H]6C5=O)cc4C)c3)C2)c1 (single isomer, unassigned) [Example 33, 1-((S or R)-1-(4-methyl-6-((1R,5S)-2-oxo-3-azabicyclo[3.1.0]hexan-3-yl)pyridin-3-yl)ethyl)-N-((cis)-3-(4-methylpyridin-2-yl)cyclobutyl)-1H-pyrazole-4-carboxamide] | 7.07
9 | Cc1cc([C@H](C)n2cc(C(=O)N[C@H]3C[C@@H](c4cc(Cl)ccc4C#N)C3)cn2)cnc1N1C[C@H]2C[C@H]2C1=O (single isomer, unassigned) [Example 5] | 9.22
10 | Cc1cc([C@](C)(O)c2cc(C(=O)N[C@H]3C[C@@H](c4cc(Cl)ccc4C#N)C3)no2)cnc1N1C[C@H]2C[C@H]2C1=O (single isomer, unassigned) [Example 157] | 7.62
11 | CC(c1cnc(N2C[C@H]3C[C@H]3C2=O)nc1)n1cc(C(=O)N[C@H]2C[C@@H](c3cc(Cl)ccc3C#N)C2)c(C#N)n1 (single isomer, unassigned) [Example 17, N-((cis)-3-(5-chloro-2-cyanophenyl)cyclobutyl)-3-cyano-1-((R or S)-1-(2-((1R,5S)-2-oxo-3-azabicyclo[3.1.0]hexan-3-yl)pyrimidin-5-yl)ethyl)-1H-pyrazole-4-carboxamide] | 8.26
12 | CC(c1ncc(N2C[C@H]3C[C@H]3C2=O)cc1F)n1cc(C(=O)N[C@H]2C[C@@H](c3cc(Cl)ccc3C#N)C2)cn1 (single isomer, unassigned) [Example 27, N-((cis)-3-(5-chloro-2-cyanophenyl)cyclobutyl)-1-((S or R)-1-(3-fluoro-5-((1R,5S)-2-oxo-3-azabicyclo[3.1.0]hexan-3-yl)pyridin-2-yl)ethyl)-1H-pyrazole-4-carboxamide] | 7.73
13 | Cc1cc(N2C[C@H]3C[C@H]3C2=O)ncc1C(C)n1cc(C(=O)N[C@H]2C[C@@](C)(c3cc(Cl)ccc3C#N)C2)cn1 (single isomer, unassigned) [Example 9, N-((cis)-3-(5-chloro-2-cyanophenyl)-3-methylcyclobutyl)-1-((R or S)-1-(4-methyl-6-((1R,5S)-2-oxo-3-azabicyclo[3.1.0]hexan-3-yl)pyridin-3-yl)ethyl)-1H-pyrazole-4-carboxamide] | 9.52

Results, then the compound that gave them:

Row | pIC50 | SMILES
14 | 8.09 | COCc1nn(C(C)c2cnc(N3C[C@H]4C[C@H]4C3=O)cc2C)cc1C(=O)N[C@H]1C[C@@H](c2cc(Cl)ccc2C#N)C1 (single isomer, unassigned) [Example 50, N-((cis)-3-(5-chloro-2-cyanophenyl)cyclobutyl)-3-(methoxymethyl)-1-((S or R)-1-(4-methyl-6-((1R,5S)-2-oxo-3-azabicyclo[3.1.0]hexan-3-yl)pyridin-3-yl)ethyl)-1H-pyrazole-4-carboxamide]
15 | 9.52 | Cc1cc(N2C[C@H]3C[C@H]3C2=O)ncc1C(C)n1cc(C(=O)N[C@H]2C[C@@](C)(c3cc(Cl)ccc3C#N)C2)nn1 (single isomer, unassigned) [Example 65, N-((cis)-3-(5-chloro-2-cyanophenyl)-3-methylcyclobutyl)-1-((S or R)-1-(4-methyl-6-((1R,5S)-2-oxo-3-azabicyclo[3.1.0]hexan-3-yl)pyridin-3-yl)ethyl)-1H-1,2,3-triazole-4-carboxamide]
16 | 8.77 | Cc1ccc(C#N)c([C@H]2C[C@@H](NC(=O)c3cn(C(C)c4cnc(N5C[C@H]6C[C@H]6C5=O)cc4C)nn3)C2)c1 (single isomer, unassigned) [Example 67, N-((cis)-3-(2-cyano-5-methylphenyl)cyclobutyl)-1-((S or R)-1-(4-methyl-6-((1R,5S)-2-oxo-3-azabicyclo[3.1.0]hexan-3-yl)pyridin-3-yl)ethyl)-1H-1,2,3-triazole-4-carboxamide]
17 | 8.68 | Cc1cc(N2C[C@H]3C[C@H]3C2=O)ncc1C(C)n1cc(C(=O)N[C@H]2C[C@@H](c3cc(Cl)ccc3C#N)C2)c(C)n1 (single isomer, unassigned) [Example 20, N-((cis)-3-(5-chloro-2-cyanophenyl)cyclobutyl)-3-methyl-1-((S or R)-1-(4-methyl-6-((1R,5S)-2-oxo-3-azabicyclo[3.1.0]hexan-3-yl)pyridin-3-yl)ethyl)-1H-pyrazole-4-carboxamide]
18 | 7.84 | Cc1cc(N2C[C@H]3C[C@H]3C2=O)ncc1C(C)n1cc(C(=O)N[C@H]2C[C@@H](c3cc(Cl)ccc3C#N)C2)nn1 (single isomer, unassigned) [Example 60, N-((cis)-3-(5-chloro-2-cyanophenyl)cyclobutyl)-1-((S or R)-1-(4-methyl-6-((1R,5S)-2-oxo-3-azabicyclo[3.1.0]hexan-3-yl)pyridin-3-yl)ethyl)-1H-1,2,3-triazole-4-carboxamide]
19 | 7.20 | Cc1ccc(C#N)c([C@H]2C[C@@H](NC(=O)c3cn(C(C)c4cnc(N5C[C@H]6C[C@H]6C5=O)cc4C)nn3)C2)c1 (single isomer, unassigned) [Example 66, N-((cis)-3-(2-cyano-5-methylphenyl)cyclobutyl)-1-((R or S)-1-(4-methyl-6-((1R,5S)-2-oxo-3-azabicyclo[3.1.0]hexan-3-yl)pyridin-3-yl)ethyl)-1H-1,2,3-triazole-4-carboxamide]
20 | 8.21 | Cc1ccc(C#N)c([C@H]2C[C@@H](NC(=O)c3cn(C(C)c4cnc(N5C[C@H]6C[C@H]6C5=O)c(C)c4C)nn3)C2)c1 (single isomer, unassigned) [Example 114, N-((cis)-3-(2-cyano-5-methylphenyl)cyclobutyl)-1-((S or R)-1-(4,5-dimethyl-6-((1R,5S)-2-oxo-3-azabicyclo[3.1.0]hexan-3-yl)pyridin-3-yl)ethyl)-1H-1,2,3-triazole-4-carboxamide]
21 | 8.70 | COc1cc(C(C)n2cc(C(=O)N[C@H]3C[C@@H](c4cc(Cl)ccc4C#N)C3)nn2)cnc1N1C[C@H]2C[C@H]2C1=O (mixture of isomers) [Example 100, N-((cis)-3-(5-chloro-2-cyanophenyl)cyclobutyl)-1-((R and S)-1-(5-methoxy-6-((1R,5S)-2-oxo-3-azabicyclo[3.1.0]hexan-3-yl)pyridin-3-yl)ethyl)-1H-1,2,3-triazole-4-carboxamide]
22 | 7.59 | Cc1ccc(C#N)c([C@H]2C[C@@H](NC(=O)c3cn(C(C)c4cnc(N5C[C@H]6C[C@H]6C5=O)c(F)c4C)nn3)C2)c1 (single isomer, unassigned) [Example 119, N-((cis)-3-(2-cyano-5-methylphenyl)cyclobutyl)-1-((R or S)-1-(5-fluoro-4-methyl-6-((1R,5S)-2-oxo-3-azabicyclo[3.1.0]hexan-3-yl)pyridin-3-yl)ethyl)-1H-1,2,3-triazole-4-carboxamide]
